Assay results as given in US20140187594A1, “DIPHENYL ETHER COMPOUNDS FOR THE TREATMENT OF LIVER, LUNG DISORDERS, DIABETIC COMPLICATIONS AND CARDIOVASCULAR DISEASES” (ORCHID CHEMICALS AND PHARMACEUTICALS LTD, priority 2010, published 2014).

Tests used:
[1] = molecular target: T1, Rat lens Aldose reductase (Rattus norvegicus, UniProt P07943); assay: Aldose reductase inhibitory activity; type: biochemical; details: rat lens enzyme, 0.2 mM NADPH, pH 6.2, 25° C.
T1 construct: Rat lens Aldose reductase is used; from tissue; host or cells: rat lens
Procedure: Rat lens Aldose reductase is used. Test compound and/or vehicle is preincubated with 3000 μg/ml enzyme (J. Enzyme Inhib. 1993, 7, 249-256; Biol. Pharm. Bull. 1994, 17, 458-459) and 0.2 mM NADPH in phosphate buffer pH 6.2 for 15 minutes at 25° C. The reaction is initiated by addition of 10 mM DL-glyceraldehyde and incubated for another 20 minutes. Determination of the amount of NADPH remained is read spectrophotometrically. Compounds are screened at 10 μM. Since enzyme activity may change from lot to lot, the concentration used will be adjusted if necessary.

[2] = molecular target: T2, Matrix metalloproteinase-2 (MMP-2) (Homo sapiens, UniProt P08253); assay: Matrix metalloproteinase-2 (MMP-2) inhibitory activity; type: biochemical
T2 sequence (P08253 110-660): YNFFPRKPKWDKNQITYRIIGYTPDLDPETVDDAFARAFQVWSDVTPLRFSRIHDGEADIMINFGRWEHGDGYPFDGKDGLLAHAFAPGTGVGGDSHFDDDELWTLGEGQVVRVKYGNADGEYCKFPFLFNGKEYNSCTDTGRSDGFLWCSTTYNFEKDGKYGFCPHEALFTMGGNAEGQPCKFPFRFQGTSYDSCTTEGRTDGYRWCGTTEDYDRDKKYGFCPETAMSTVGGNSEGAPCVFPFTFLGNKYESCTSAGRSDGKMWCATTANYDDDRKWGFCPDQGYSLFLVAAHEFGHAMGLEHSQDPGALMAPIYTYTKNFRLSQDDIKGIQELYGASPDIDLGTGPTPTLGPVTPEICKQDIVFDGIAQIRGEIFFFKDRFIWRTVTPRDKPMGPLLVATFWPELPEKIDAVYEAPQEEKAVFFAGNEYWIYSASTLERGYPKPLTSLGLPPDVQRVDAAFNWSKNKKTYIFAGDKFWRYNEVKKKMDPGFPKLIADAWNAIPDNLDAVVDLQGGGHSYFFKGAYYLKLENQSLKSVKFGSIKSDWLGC
Procedure: 3. Matrix Metalloproteinase-2 (MMP-2) Inhibitory Activity (at 10 μM)
MMP-2 enzymes are implicated in lung metastasis and there inhibition is useful to prevent or treat lung metastasis (Journal of Ethnopharmacology 2011, 133, 426-433).

[3] = system: Hepatic stellate cells (LX2); assay: Induction of apoptosis in hepatic stellate cells (LX2), propidium iodide staining; type: cell-based; details: 8 hours, PI staining
Description: Propidium iodide (PI) has been widely used to measure apoptosis in different experimental systems (Eur. J. Pharmacol., 2003, 473, 117-125; Br. J. Pharmacol., 2009, 158, 1720-1734). […] Next, cells were washed with PBS for 2 times to remove unbound PI and the fluorescence images were acquired with DP71 camera adapted to an Olympus IX71 microscope. Apoptotic cells were detected by propidium iodide (PI) staining and % apoptotic cells per field were estimated. Number of PI positive cells and total number of cells were counted from the images and plotted as percentage of apoptotic cells per field.

[4] = system: human endothelial cells (ECV 304); assay: Selectivity of apoptosis induction: endothelial cells; type: cell-based; details: ECV 304, PI staining
Procedure: (§1) Propidium iodide (PI) has been widely used to measure apoptosis in different experimental systems (Eur. J. Pharmacol., 2003, 473, 117-125; Br. J. Pharmacol., 2009, 158, 1720-1734). The LX2 cells were treated with vehicle (DMSO), staurosporine (0.1 nM), compound of formula (B) (2 μM), compound of formula (C) (2 μM) for 8 hours followed by propidium iodide (PI) for 10 minute. Next, cells were washed with PBS for 2 times to remove unbound PI and the fluorescence images were acquired with DP71 camera adapted to an Olympus IX71 microscope. Apoptotic cells were detected by propidium iodide (PI) staining and % apoptotic cells per field were estimated. Number of PI positive cells and total number of cells were counted from the images and plotted as percentage of apoptotic cells per field.
(§2) The methodology adopted is same as in Experiment-7 above.
(§3) Apoptotic cells were detected by propidium iodide (PI) staining and % apoptotic cells per field were estimated.

[5] = system: human fibroblast cells isolated from skin biopsies; assay: Selectivity of apoptosis induction: skin fibroblasts; type: cell-based; details: PI staining
Procedure: as §1, §2, §3

[6] = system: human hepatocytes (HepG2); assay: Selectivity of apoptosis induction: hepatocytes; type: cell-based; details: HepG2, PI staining
3T3-L1 fibroblasts = assay: Adipogenesis in 3T3-L1 mouse fibroblast (oil red O staining); type: cell-based; details: 1 μM or 10 μM, 7 days
Procedure: 3T3-L1 fibroblasts were seeded at a concentration of 10,000 cells/well in 24 well tissue culture plates in a total volume of 1 mL Dulbecco's Modified Eagle Medium (DMEM media) containing 10% fetal bovine serum, penicillin and streptomycin. […] After every two days, the media contents were replaced with fresh media and the drug. This process was carried out for 7 days. After 7 days of treatment, the cells were fixed in 10% formalin for 1 hour at […], stained with oil red 0 solution for 10 minutes and washed 6 times with 1×PBS to remove the excess stain. The plates were dried and visualized under 40× objective using Nikon E200 microscope and the pictures were taken by Nikon DXM 1200C digital camera.

collagen type 1 = assay: Collagen type 1 secretion in activated hepatic stellate cells (western blot); type: cell-based; details: overnight incubation, FIGS. 35a & 35b
Procedure: HSC cells were treated with the drugs and incubated overnight. The conditioned media was taken out and the secreted proteins were extracted using TCA-acetone method. The cells were harvested for western blot analysis and 1% SDS was added to the sample. Proteins were detected by using 1:500 dilution of polyclonal antibody to collagen type 1 (Abcam; AB292) and 1:1000 dilutions of goat anti-rabbit IgG conjugated to horseradish peroxidase (Bangalore GENEI). The blots were developed by using substrate TMB/H2O2. Loading control was performed using the β-actin house keeping gene expression level.

[7] = 48 weeks, 4 mg twice daily; Hepatology, 2003, 38, 1008-1017; cited from earlier work

Row | IC50 [1] [µM] | inhibition at 10 µM [2] [%] | Compound | % apoptotic cells per field ([3]; 2 μM) [%] | apoptosis vs vehicle (DMSO) [4] | apoptosis vs vehicle (DMSO) [5] | apoptosis vs vehicle (DMSO) [6] | adipogenesis (intracellular lipids stained with oil red O) (3T3-L1 fibroblasts) | Collagen secretion by activated hepatic stellate cells (collagen type 1) | median weight gain increase [7] [%] | patients in whom weight gain occurred [7] [%] | % apoptotic cells per field ([3]; 0.1 nM)
1 | 4.92 | 59 | N[C@@H](Cc1ccc(Oc2ccc(CC3SC(=O)NC3=O)cc2)cc1)C(=O)O (stereo partly drawn) [Compound of formula (B), (2S)-2-Amino-3-(4-{4-[(2,4-dioxo-1,3-thiazolidin-5-yl)methyl]phenoxy}phenyl)propanoic acid] | 6±0.40 | no significant apoptosis | no significant apoptosis | no significant apoptosis | did not induce adipogenesis | markedly decreased |  |  | 
2 | 1.43 | 16 | O=C(O)Cc1ccc(Oc2ccc(CC3SC(=O)NC3=O)cc2)cc1 (stereo not shown) [Compound of formula (C), (4-{4-[(2,4-Dioxo-1,3-thiazolidin-5-yl)methyl]phenoxy}phenyl)acetic acid] | 7.5±0.64 | no significant apoptosis | no significant apoptosis | no significant apoptosis | did not induce adipogenesis | markedly decreased |  |  | 
3 |  |  | CN(CCOc1ccc(CC2SC(=O)NC2=O)cc1)c1ccccn1 (stereo not shown) [Rosiglitazone] |  |  |  |  |  |  | 7.3 | 67 | 
4 |  |  | CN[C@@H]1C[C@H]2O[C@@](C)([C@@H]1OC)n1c3ccccc3c3c4c(c5c6ccccc6n2c5c31)C(=O)NC4 [staurosporine, reference compound] |  |  |  |  |  |  |  |  | approximately 23%
